Source: patent US8835134B2, “Cycloastragenol monoglucoside, preparation, pharmaceutical composition and application thereof” (Tianjin Institute of Pharmaceutical Research, priority 2007, dated 2014)

How the values were obtained:
isolated rat heart = experiment: Cardiotonic effects on isolated heart (Langendorff perfusion); set-up: species or system Wistar rats
Procedure: Wistar rats (250-280 g) were anesthetized with chloral hydrate (360 mg/kg intraperitoneally) and heparinized with sodium heparin (1 mg) via sublingual vein. After opening the chest cavity, the hearts were quickly excised and immersed in cold Krebs-Henseleit (K-H) solution. Hearts were retrogradely perfused with 74 centimeters of water pressure via the aorta in a Langendorff apparatus with K-H solution, which was bubbled with a mixture of 95% O2 and 5% CO2. The suture fixed on cardiac apex was connected to a tension transducer which was connected to a polygraph (RM6300, Nihon Kohden, Japan) and a data acquisition workstation (MP150, BIOPAC Systems, USA) to a computer running Acknowledge (version 3.7.1).

Solubility = assay type: physicochemical

## CC(C)(O)[C@@H]1CC[C@](C)([C@H]2[C@@H](O)C[C@@]3(C)C4C[C@H](OC5OC(CO)C(O)C(O)C5O)C5C(C)(C)[C@@H](O)CC[C@@]56C[C@@]46CC[C@]23C)O1 (stereo partly drawn) [CMG, Cycloastragenol-6-O-β-D-glucoside]
Isolated rat heart; 1 × 10^−7 mol/L
  Contractility Variation (%): 17.08 ± 7.19^++ %
  Contractility after administration: 2.06 ± 0.59 g
  Contractility before administration: 1.77 ± 0.52 g
  HR Variation (%): −38 ± 22^++ %
  HR after administration: 92 ± 35 bpm
  HR before administration: 145 ± 16 bpm
  peak derivatives of contractility Variation (%): 18 ± 6^++ %
  peak derivatives of contractility Δ T/S after administration: 86 ± 13 g/s
  peak derivatives of contractility Δ T/S before administration: 73 ± 11 g/s
  peak derivatives of diastolic force Variation (%): 14 ± 8^+ %
  peak derivatives of diastolic force Δ T/S after administration: -51 ± 14 g/s
  peak derivatives of diastolic force Δ T/S before administration: -45 ± 14 g/s
Isolated rat heart; 1 × 10^−8 mol/L
  Contractility Variation (%): 7.72 ± 8.03%
  Contractility after administration: 1.97 ± 0.61 g
  Contractility before administration: 1.81 ± 0.49 g
  HR Variation (%): −17 ± 18%
  HR after administration: 124 ± 25 bpm
  HR before administration: 156 ± 51 bpm
  peak derivatives of contractility Variation (%): 6 ± 8%
  peak derivatives of contractility Δ T/S after administration: 76 ± 19 g/s
  peak derivatives of contractility Δ T/S before administration: 71 ± 15 g/s
  peak derivatives of diastolic force Variation (%): 7 ± 9%
  peak derivatives of diastolic force Δ T/S after administration: -47 ± 16 g/s
  peak derivatives of diastolic force Δ T/S before administration: -44 ± 15 g/s
Isolated rat heart; 3 × 10^−8 mol/L
  Contractility Variation (%): 5.84 ± 2.92%
  Contractility after administration: 1.92 ± 0.72 g
  Contractility before administration: 1.83 ± 0.72 g
  HR Variation (%): −13 ± 12%
  HR after administration: 128 ± 23 bpm
  HR before administration: 150 ± 41 bpm
  peak derivatives of contractility Variation (%): 11 ± 9^+ %
  peak derivatives of contractility Δ T/S after administration: 77 ± 16 g/s
  peak derivatives of contractility Δ T/S before administration: 70 ± 16 g/s
  peak derivatives of diastolic force Variation (%): 10 ± 8%
  peak derivatives of diastolic force Δ T/S after administration: -51 ± 18 g/s
  peak derivatives of diastolic force Δ T/S before administration: -46 ± 15 g/s
Isolated rat heart; isolated rat heart
  Contractility: increased
  Heart rate: decreased
  Peak derivatives of contractility: increased
  Peak derivatives of diastolic force: increased
  cardiotonic effect (conclusion): exhibited cardiotonic effects
Solubility
  solubility: 40-50 mg/100 ml

## CC(C)(O)[C@@H]1CC[C@](C)([C@H]2[C@@H](O)C[C@@]3(C)[C@@H]4C[C@H](O[C@@H]5O[C@H](CO)[C@@H](O)[C@H](O)[C@H]5O)[C@H]5C(C)(C)[C@@H](O[C@@H]6OC[C@@H](O)[C@H](O)[C@H]6O)CC[C@@]56C[C@@]46CC[C@]23C)O1 [astragaloside IV, reference compound]
Isolated rat heart; 1 × 10^−7 mol/L
  Contractility Variation (%): 24.56 ± 12.44^++ %
  Contractility after administration: 1.73 ± 0.42 g
  Contractility before administration: 1.42 ± 0.41 g
  HR Variation (%): −24 ± 17^+ %
  HR after administration: 117 ± 52 bpm
  HR before administration: 151 ± 60 bpm
  peak derivatives of contractility Variation (%): 21 ± 19^+ %
  peak derivatives of contractility Δ T/S after administration: 78 ± 14 g/s
  peak derivatives of contractility Δ T/S before administration: 66 ± 13 g/s
  peak derivatives of diastolic force Variation (%): 15 ± 9^+ %
  peak derivatives of diastolic force Δ T/S after administration: -50 ± 11 g/s
  peak derivatives of diastolic force Δ T/S before administration: -44 ± 11 g/s
Isolated rat heart; 1 × 10^−8 mol/L
  Contractility Variation (%): 6.00 ± 9.25%
  Contractility after administration: 1.94 ± 0.43 g
  Contractility before administration: 1.83 ± 0.38 g
  HR Variation (%): −6 ± 5%
  HR after administration: 144 ± 34 bpm
  HR before administration: 152 ± 30 bpm
  peak derivatives of contractility Variation (%): 6 ± 15%
  peak derivatives of contractility Δ T/S after administration: 81 ± 19 g/s
  peak derivatives of contractility Δ T/S before administration: 76 ± 18 g/s
  peak derivatives of diastolic force Variation (%): 8 ± 8%
  peak derivatives of diastolic force Δ T/S after administration: -46 ± 9 g/s
  peak derivatives of diastolic force Δ T/S before administration: -43 ± 10 g/s
Isolated rat heart; 3 × 10^−8 mol/L
  Contractility Variation (%): 6.98 ± 8.82%
  Contractility after administration: 1.88 ± 0.40 g
  Contractility before administration: 1.78 ± 0.46 g
  HR Variation (%): −14 ± 13%
  HR after administration: 145 ± 65 bpm
  HR before administration: 167 ± 64 bpm
  peak derivatives of contractility Variation (%): 12 ± 7^+ %
  peak derivatives of contractility Δ T/S after administration: 76 ± 18 g/s
  peak derivatives of contractility Δ T/S before administration: 69 ± 19 g/s
  peak derivatives of diastolic force Variation (%): 10 ± 11%
  peak derivatives of diastolic force Δ T/S after administration: -45 ± 12 g/s
  peak derivatives of diastolic force Δ T/S before administration: -41 ± 12 g/s
Isolated rat heart; isolated rat heart
  Contractility: increased
  Heart rate: decreased
  Peak derivatives of contractility: increased
  Peak derivatives of diastolic force: increased
Solubility
  solubility: 2-4 mg/100 ml
